The source of these data is patent US9670172B2, “Heterocyclic compounds and methods of use” (Medivation Technologies, Inc., priority 2014, dated 2017).

As a reminder, the inhibition is the relative decrease from the control value, in per cent. The term solubility denotes the dissolved amount per volume that the medium holds. For orientation: IC50 means the point on the concentration scale where inhibition reaches its midpoint. A higher IC50 goes with a need for much substance. The term pKa denotes the negative logarithm of the acid dissociation constant.

In brackets after ≈: the same amount, converted by molar mass.

Data set [1] relates to SREBP2. Put plainly: SREBP2 cleavage in HEPG2 cells (Western blot normalized to actin). The following applies: Homo sapiens, HepG2 cells, read-out: Average SREBP2 cleavage (% Inhibition, n = 3). The format is cell-based. The protocol: Average SREBP2 cleavage in HEPG2 cells was measured in the presence of compounds disclosed in Table 1. HepG2 cells were seeded at 500,000 cells per well in 6-well plates in DMEM supplemented with 10% FBS. After 2 days, cells were treated with compounds (20 μM) for 1 day in DMEM without FBS. Western blots were normalized with respect to actin.
The results are shown in Table 3 as percent inhibition@20 μM, and in Table 4 as percent inhibition@5 μM.
For orientation: A western blot detects proteins with antibodies after separation by electrophoresis.

A short description of data set [2]: Solubility study at different pH (Pion, Inc.). The format is physicochemical. The following applies: aqueous buffer. The source says: Other ionized forms are conceivable, but those presented here are a protonated form; a neutral or internal zwitterionic form; and an anionic form. Which form would exist is dependent upon the pH of the aqueous or physiological solution in which the compound is placed. […] These values are similar to those experimentally obtained under potentiometric and spectrophotometric methods [courtesy of Pion, Inc.], found to be 3.09 and 5.27. […] It is postulated that the more electronegative nature of the CF3 group results in a more highly acidic nature of the compound. Based on the calculated/measured pKa values of the trifluoromethylsulfonamide containing compounds claimed herein, it is likely that at a pH of 6-8, these compounds will predominantly exist in the anionic form, with the above equilibrium lying to the right at higher pH values. The anionic form renders the compound more aqueous soluble and therefore better absorbed. […] When a compound is dosed orally, most of the absorption occurs in the intestines where the pH ranges from 6-8.

The subject of data set [3] is SREBP2. Kind of data set: SREBP2 cleavage in HEPG2 cells (Western blot normalized to actin). The format is cell-based. The following applies: Homo sapiens, several concentrations, FIG. 1.
The nature of data set [4]: HepG2 cell viability by MTS. The format is cell-based. The following applies: human, HepG2 cells, 3 days, DMEM without FBS, MTS, read-out: Average Viability (% Inhibition, n = 3). The protocol: (§1) For viability measurements, HepG2 cells were seeded at 5,000 cells per well in 96-well plates in DMEM supplemented with 10% FBS. After 1 day in culture, cells were treated with compounds (20 μM & 5 μM) for 3 days in DMEM without FBS. Viability was measured by MTS. Treatment with compounds (20 μM & 5 μM) was carried out in medium without FBS, and viability was measured by MTS. […]

In data set [5] the test system is HepG2 cells. Put plainly: HepG2 cell viability by MTS. The format is cell-based. The following applies: Homo sapiens, several concentrations, FIG. 1. The protocol:
as §1

Data set [6] is described as follows: pKa by potentiometric and spectrophotometric methods (Pion, Inc.). The format is physicochemical. The following applies: two values, read-out: pKa experimentally obtained. The source says: As has been described above, the inherent pKa(s) of molecules can be assessed by potentiometric methods known to the skilled artisan, typically UV spectrophotometry [see, for example, Julémont, et al. J. Med. Chem. (2002), 45, pp 5182-5185]. In-silico methods can be used as a predictive tool, and software is commercially available from, for example, ACD/Labs, Molecular Discovery, ChemAxon, and other vendors. […] The compounds provided herein contain several ionizable centers including, for example, the trifluoromethylsulfonamide nitrogen atom; the thiazole ring nitrogen atom; the “ring A” pyridine nitrogen atom, etc.
Other ionized forms are conceivable, but those presented here are a protonated form; a neutral or internal zwitterionic form; and an anionic form. Which form would exist is dependent upon the pH of the aqueous or physiological solution in which the compound is placed. […] These values are similar to those experimentally obtained under potentiometric and spectrophotometric methods [courtesy of Pion, Inc.], found to be 3.09 and 5.27. […] Based on the calculated/measured pKa values of the trifluoromethylsulfonamide containing compounds claimed herein, it is likely that at a pH of 6-8, these compounds will predominantly exist in the anionic form, with the above equilibrium lying to the right at higher pH values. […]

Take `CC(C)Cc1cc(-c2nc(-c3ccc(NS(=O)(=O)C(F)(F)F)cc3Cl)cs2)ccn1` [Compound 37, N-(3-chloro-4-(2-(2-isobutylpyridin-4-yl)thiazol-4-yl)phenyl)-1,1,1-trifluoromethanesulfonamide]: the inhibition at 20 µM in data set [1] (24 h, 20 μM, 1 day, DMEM without FBS) came out at 94.6%. The inhibition at 5 µM in data set [1] (5 μM) was found to be 75%. Besides, the solubility in data set [2] (pH 6.0) was 13 µg/mL (≈ 27.3 µM); in data set [2] (pH 7.0), 104 µg/mL (≈ 219 µM); in data set [2] (pH 8.0), greater than 130 µg/mL. Also, the figures for the IC50 in data set [3] and in data set [5] were 4.6 µM and 2.15 µM, respectively. The cytotoxicity at 3 days, 5 μM in data set [4] (5 μM) is 94%. In addition, in data set [4] (20 μM), the cytotoxicity at 3 days, 20 μM was found to be 95%. The pKa in data set [6] worked out at 3.09.
